Results on nine compounds are retold here after PubChem BioAssay (NCI).

Test systems include A498 renal; BT-549 breast; CCRF-CEM leukemia; DU-145 prostate; K-562 leukemia; MDA-MB-231 breast; OVCAR-4 ovarian; PC-3 prostate; SF-539 CNS; UO-31 renal.
What all share (experiment): NCI anticancer screen, dose series, 48 h

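Values below derive from 48-hour exposures of cells grown in 96-well plates, with endpoints linearly interpolated between the two concentrations bracketing the appropriate inhibition level. At the GI50, growth is halved. TGI: concentration producing complete growth inhibition.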

As to `Cc1ccc2nc3c(C)c(Cl)c(=O)cc-3sc2c1`, the TGI in the assay on A498 renal was > 100 µM; in the assay with BT-549 breast it was > 100 µM; with CCRF-CEM leukemia it was 56.8 µM; in the assay with DU-145 prostate, > 100 µM; in the assay with K-562 leukemia, 19 µM; with MDA-MB-231 breast, 15.8 µM. The TGI with OVCAR-4 ovarian is > 100 µM; with PC-3 prostate, > 100 µM; with SF-539 CNS it was 62.3 µM; with UO-31 renal, 67.4 µM.

On to `O=C(/C=C/c1ccc(C(F)(F)F)cc1)c1ccc(Nc2nc(NCCO)nc(NCCO)n2)cc1`, for which the GI50 is 8.85 µM in the assay on A498 renal; 2.53 µM in the assay with BT-549 breast; 3.24 µM in the assay on CCRF-CEM leukemia; 4.03 µM with DU-145 prostate; 2.84 µM in the assay on K-562 leukemia; 3.29 µM with MDA-MB-231 breast. For the same compound, the GI50 is 4.29 µM in the assay with OVCAR-4 ovarian, 3.29 µM in the assay with PC-3 prostate, 1.68 µM with SF-539 CNS and 1.54 µM in the assay with UO-31 renal. In addition, the TGI with A498 renal amounted to 21.2 µM; with BT-549 breast, 8 µM; in the assay with CCRF-CEM leukemia it was 10.7 µM; in the assay with DU-145 prostate it was 14.3 µM; in the assay on K-562 leukemia it was 8.89 µM; in the assay with MDA-MB-231 breast, 13.8 µM. The TGI in the assay with OVCAR-4 ovarian was found to be 20.8 µM; with PC-3 prostate, 13.1 µM; in the assay with SF-539 CNS it was 3.38 µM; in the assay with UO-31 renal, 4.33 µM.

With `NC(=O)CCC(NC(=O)OCc1ccccc1)C(=O)OCC(=O)c1ccccc1` (centres undefined), the GI50 with A498 renal, in the assay with BT-549 breast, with CCRF-CEM leukemia, in the assay with DU-145 prostate, in the assay with K-562 leukemia and in the assay on MDA-MB-231 breast was > 100 µM in each case. The GI50 in the assay on OVCAR-4 ovarian, in the assay on PC-3 prostate, in the assay with SF-539 CNS and with UO-31 renal was > 100 µM throughout. The TGI with A498 renal, in the assay on BT-549 breast, with CCRF-CEM leukemia, in the assay on DU-145 prostate, in the assay on K-562 leukemia and with MDA-MB-231 breast was > 100 µM throughout. Besides, the TGI in the assay with OVCAR-4 ovarian, in the assay on PC-3 prostate, in the assay on SF-539 CNS and in the assay with UO-31 renal was > 100 µM throughout.

Turning to `COc1ccc(/C(C)=C(\c2ccc(Cl)cc2)c2ccc(OCCN3CCCC3)cc2)cc1`, the GI50 with A498 renal is 4.02 µM; in the assay on BT-549 breast, 3.82 µM; with CCRF-CEM leukemia it was 3.79 µM; in the assay on DU-145 prostate, 4.89 µM; in the assay with K-562 leukemia, 1.25 µM; with MDA-MB-231 breast, 3.64 µM. Also, the GI50 is 3.61 µM in the assay with OVCAR-4 ovarian, 3.39 µM in the assay on PC-3 prostate, 4.32 µM with SF-539 CNS and 2.88 µM in the assay on UO-31 renal. Further, the TGI with A498 renal was 8.38 µM; with BT-549 breast, 8.09 µM; in the assay with CCRF-CEM leukemia, 11.4 µM; with DU-145 prostate, 9.4 µM; in the assay on K-562 leukemia, 7.23 µM; in the assay with MDA-MB-231 breast it was 7.8 µM. Besides, the TGI in the assay with OVCAR-4 ovarian was determined as 7.64 µM; in the assay with PC-3 prostate, 7.52 µM; with SF-539 CNS, 8.59 µM; in the assay on UO-31 renal, 7.12 µM.

Consider `COc1ccc(N2CCN(C(=O)c3ccccc3Nc3ccnc(C(F)(F)F)c3)CC2)cc1`, for which the GI50 in the assay on A498 renal was 12.2 µM; in the assay on BT-549 breast, 68.5 µM; in the assay with CCRF-CEM leukemia it was 53.9 µM; in the assay on DU-145 prostate, > 100 µM; in the assay on K-562 leukemia it was 59.3 µM; with MDA-MB-231 breast, > 100 µM. Further, the GI50 was 22.4 µM in the assay on OVCAR-4 ovarian, 18.7 µM in the assay on PC-3 prostate, > 100 µM in the assay with SF-539 CNS and 28 µM with UO-31 renal. Also, the TGI with A498 renal, in the assay on BT-549 breast, in the assay on CCRF-CEM leukemia, with DU-145 prostate, with K-562 leukemia and in the assay with MDA-MB-231 breast was > 100 µM throughout. For the same compound, the TGI in the assay on OVCAR-4 ovarian, with PC-3 prostate, in the assay on SF-539 CNS and in the assay with UO-31 renal was > 100 µM in each case.

Consider `CC(CN=C(CC(=O)c1ccc(Br)cc1)c1ccccc1)N=C(CC(=O)c1ccc(Br)cc1)c1ccccc1` (centres undefined), for which the GI50 in the assay with A498 renal was 38.8 µM; in the assay with BT-549 breast it was 42.1 µM; with CCRF-CEM leukemia, 20.1 µM; with DU-145 prostate it was 64.4 µM; with K-562 leukemia, > 100 µM; in the assay on MDA-MB-231 breast it was > 100 µM. Moreover, the GI50 in the assay with OVCAR-4 ovarian was 8.15 µM; with PC-3 prostate it was 29.4 µM; in the assay with SF-539 CNS, > 100 µM; in the assay with UO-31 renal it was 1.66 µM. In addition, the TGI in the assay with A498 renal, in the assay on BT-549 breast, in the assay on CCRF-CEM leukemia, with DU-145 prostate, with K-562 leukemia and in the assay with MDA-MB-231 breast was > 100 µM throughout. The TGI in the assay with OVCAR-4 ovarian, in the assay with PC-3 prostate, in the assay with SF-539 CNS and in the assay on UO-31 renal was > 100 µM throughout.

As to `Cc1ccc(Cl)cc1Nc1nc(C(F)(F)F)ccc1C(=O)Nc1cccc(C(F)(F)F)c1`, the GI50 in the assay on A498 renal was 2.97 µM; in the assay with BT-549 breast it was 3.56 µM; in the assay on CCRF-CEM leukemia, 2.8 µM; with DU-145 prostate it was 4.76 µM; in the assay with K-562 leukemia, 3.59 µM; in the assay with MDA-MB-231 breast, 2.29 µM. Further, the GI50 in the assay on OVCAR-4 ovarian is 3.58 µM; with PC-3 prostate, 2.07 µM; in the assay on SF-539 CNS, 3.95 µM; in the assay on UO-31 renal, 2.84 µM. The TGI is 8.59 µM in the assay on A498 renal; 13.3 µM in the assay with BT-549 breast; 11 µM in the assay on CCRF-CEM leukemia; 16.6 µM in the assay with DU-145 prostate; > 100 µM in the assay on K-562 leukemia; 9.63 µM in the assay on MDA-MB-231 breast. Also, the TGI in the assay on OVCAR-4 ovarian worked out at 17.8 µM; with PC-3 prostate, 13.4 µM; with SF-539 CNS, 14.1 µM; in the assay on UO-31 renal, 12.7 µM.

`CC1(C)CCC[C@]23C(=O)O[C@](O)(C(=O)C4=C[C@@](C)(/C=C/CCCc5ccc6ccc7cccc8ccc5c6c78)CC[C@@]42O)[C@@H]13`: the GI50 in the assay on A498 renal was 0.15 µM; in the assay with BT-549 breast, 0.141 µM; in the assay with CCRF-CEM leukemia, 0.199 µM; in the assay with DU-145 prostate, 0.179 µM; in the assay with K-562 leukemia it was 0.3 µM; with MDA-MB-231 breast it was 0.197 µM. In addition, the GI50 in the assay on OVCAR-4 ovarian is 0.259 µM; in the assay with PC-3 prostate it was 0.166 µM; in the assay on SF-539 CNS, 0.17 µM; with UO-31 renal, 0.156 µM. In addition, the TGI is 0.288 µM in the assay on A498 renal; 0.282 µM in the assay with BT-549 breast; 5.87 µM in the assay with CCRF-CEM leukemia; 0.326 µM in the assay on DU-145 prostate; 3.19 µM in the assay with K-562 leukemia; 0.431 µM with MDA-MB-231 breast. Moreover, the TGI in the assay on OVCAR-4 ovarian amounted to 0.616 µM; with PC-3 prostate it was 0.378 µM; with SF-539 CNS, 0.322 µM; in the assay with UO-31 renal, 0.291 µM.

As for `CC[C@@]1(O)C(=O)NCc2c1cc1n(c2=O)Cc2cc3ccccc3nc2-1`, the GI50 in the assay on A498 renal is 3.95 µM; with BT-549 breast, 9.04 µM; with CCRF-CEM leukemia it was 0.253 µM; with DU-145 prostate, 2.28 µM; with K-562 leukemia, 4.4 µM; with MDA-MB-231 breast, > 100 µM. Further, the GI50 with OVCAR-4 ovarian was 35.5 µM; in the assay on PC-3 prostate it was 7.57 µM; in the assay with SF-539 CNS, 1.71 µM; in the assay with UO-31 renal, 1.77 µM. Moreover, the TGI in the assay with A498 renal was 53.1 µM; with BT-549 breast it was > 100 µM; in the assay on DU-145 prostate, > 45.8 µM; with K-562 leukemia it was > 100 µM; in the assay with MDA-MB-231 breast, > 100 µM; in the assay with OVCAR-4 ovarian, > 100 µM. Also, the TGI in the assay with PC-3 prostate is > 100 µM; with SF-539 CNS, 11 µM; in the assay on UO-31 renal, 13.1 µM.
